Reference: patent US12364689B2, “Dosage regimen for the treatment of cancer” (AstraZeneca AB, priority 2020, dated 2025)
“Also recorded” adds a separate entry of the source.

How the values were obtained:
[1] = tested on: women with ER+ HER2- advanced breast cancer; assay: Phase 1 clinical trial: safety and tolerability (AEs, DLTs); assay type: in vivo
Description: “Grade 4 or 5 adverse events” can be classified according to the common terminology criteria for adverse events (CTCAE).
Dose Limiting Toxicity (DLT): a DLT is defined as an AE or abnormal laboratory value that occurs from the first dose of AZD9833 up to and including Day 28, Cycle 1 (the DLT period) that is assessed as unrelated to disease progression, intercurrent illness, or concomitant medications and that, despite optimal therapeutic intervention, meets any of the following criteria: • (a) Any death not clearly due to the underlying disease or extraneous causes • (b) Haematological toxicities as follows (CTCAE): • (i) Any >Grade 4 haematological toxicity present for more than 4 consecutive days, or requiring blood transfusions, G-CSF, or erythropoietins. • (ii)>Grade 3 neutropenia of any duration accompanied with fever ≥38.5° C. and/or systemic infection. • (iii)>Grade 3 thrombocytopenia of any duration with bleeding. • (iv) Grade 4 thrombocytopenia (regardless of duration or bleeding) • (c) Any non-haematological toxicity CTCAE >Grade 3 but with the following conditional stipulations: • (i) Nausea >CTCAE Grade 3 for more than 3 consecutive days despite administration of maximal anti-emetic therapy. • (ii) Vomiting >CTCAE Grade 3 for more than 3 consecutive days despite administration of maximal anti-emetic therapy. • (iii) Vomiting >CTCAE Grade 4 (regardless of duration) • (iv) Diarrhoea >CTCAE Grade 3 for more than 3 consecutive days despite administration of maximal anti-diarrheal therapy. • (v) Diarrhoea ≥ CTCAE Grade 4 (regardless of duration) • (vi) CTCAE Grade ≥3 fatigue that persists for more than 4 days. • (vii) CTCAE Grade ≥3 increase in creatinine. • (d) Other toxicity: • (i) QTcF value >500 ms or QTcF prolongation from baseline by 60 ms and >480 ms confirmed on at least 2 separate ECGs. • (ii)>CTCAE Grade 4 electrocardiogram QT corrected interval prolongation. • (iii) An increase in serum/plasma AST or ALT ≥3×ULN and concurrent TBL ≥2 ULN. • (e) Any other toxicity that: • (i) Is greater than at baseline and is clinically significant and/or unacceptable despite optimal therapeutic intervention, and is judged to be a DLT by the SRC, or • (ii) Results in a disruption of the dosing schedule of more than 14 days despite optimal therapeutic intervention.
Safety and Clinical Assessments: The safety and tolerability of AZD9833 is the primary objective of this study. Related outcome measures are DLTs, AEs/SAEs, vital signs, clinical chemistry/haematology, and ECGs.
Clinical Safety Laboratory Assessments: Clinical chemistry, haematology, and urinalysis and coagulation will be performed at a local laboratory at or near to the investigator study site. Sample tubes and sample sizes may vary depending on laboratory method used and routine practice at the study site.
A clinical trial according to the above protocol was carried out using 60 patients.

[2] = tested on: ER positive, HER2 negative advanced breast cancer; assay: Phase 1 dose-escalation and expansion clinical trial: anti-tumour activity by RECIST 1.1; assay type: in vivo, human; settings: for ORR (%) objective response rate: responders/evaluable (percent)
From the text: “Objective response rate” is the percentage of patients with measurable disease at baseline and who have a date of first dose of >17 weeks or a date of post-treatment scan of >15 weeks that indicates a confirmed response as measured by the RECIST criteria. “Clinical benefit rate” is the percentage of patients who have a date of first dose of ≥25 weeks or a date of post-treatment scan of >23 weeks that indicates a confirmed response or stable disease as measured by the RECIST criteria for >23 weeks post treatment. Introduction: To determine the optimal dosing regimen for AZD9833 Phase 1 dose-escalation and expansion in patients with ER positive, HER2 negative advanced breast cancer was carried out according to the following basic protocol. Overall Design: This is a multicentre dose escalation and expansion, first-in-human study designed to evaluate the safety and tolerability of AZD9833 alone (Parts A and B) in women with endocrine-resistant ER+HER2-breast cancer that is not amenable to treatment with curative intent. Efficacy Assessment: Anti-tumour activity will be evaluated using RECIST 1.1 by investigator assessments. Baseline tumour assessments should encompass all areas of known predilection for metastases in the disease under evaluation and should additionally investigate areas that may be involved based on signs and symptoms of individual subjects. Baseline assessments should be performed no more than 28 days before the start of AZD9833, ideally, as close as possible to the start of AZD9833. The methods of assessment used at baseline should be used at each subsequent assessment during treatment and follow-up part of the study. Any other sites at which new disease is suspected should also be appropriately imaged. If an unscheduled assessment is performed and the subject has not progressed, every attempt should be made to perform subsequent assessments at the scheduled visits while the subject remains on AZD9833 or until they have progressed. Categorisation of objective tumour response assessment will be based on the RECIST 1.1 guidelines for response: complete response (CR), partial response (PR), stable disease (SD), and progression of disease (PD). For subjects who only have non-measurable disease at baseline, categorisation of objective tumour response assessment will be based on the RECIST 1.1 guidelines for response for non-target lesions (NTLs): CR, PD, and non-CR/non PD. If the investigator is unsure whether progression has occurred, particularly with response to NTLs or the appearance of a new lesion, it is advisable to continue AZD9833 and reassess the subject's status at the next scheduled assessment, or sooner if clinically indicated. To achieve ‘unequivocal progression’ on the basis of non-target disease, there must be an overall level of substantial worsening in non-target disease such that, even in presence of SD or PR in the target disease, the overall tumour burden has increased sufficiently to merit discontinuation of therapy. A modest increase in the size of one or more NTLs is usually not sufficient to qualify for unequivocal disease progression status. A clinical trial according to the above protocol was carried out using 60 patients.

SMILES: C[C@@H]1Cc2c(ccc3[nH]ncc23)[C@@H](c2ccc(NC3CN(CCCF)C3)cn2)N1CC(F)(F)F [AZD9833, N-(1-(3-fluoropropyl)azetidin-3-yl)-6-((6S,8R)-8-methyl-7-(2,2,2-trifluoroethyl)-6,7,8,9-tetrahydro-3H-pyrazolo[4,3-f]isoquinolin-6-yl) pyridin-3-amine]
- DLT observed ([1]; 300 mg): G3 QTcF prolongation
- DLT observed ([1]; 450 mg): G3 vomiting; also recorded: a combination of G2 visual disturbance, G2 headache and G2 gait disturbance
- G4 or 5 AEs ([1]; 60 patients, all doses): No G4 or 5 AEs were reported
- Treatment-related AE: asthenia, patients affected ([1]; 60 patients, all doses): 10%
- Treatment-related AE: bradycardia/sinus bradycardia, patients affected ([1]; 60 patients, all doses): 45%
- Treatment-related AE: dizziness, patients affected ([1]; 60 patients, all doses): 10%
- Treatment-related AE: fatigue, patients affected ([1]; 60 patients, all doses): 13%
- Treatment-related AE: nausea, patients affected ([1]; 60 patients, all doses): 18%
- Treatment-related AE: visual disturbances, patients affected ([1]; 60 patients, all doses): 53%
- Treatment-related AE: vomiting, patients affected ([1]; 60 patients, all doses): 10%
- clinical relevance of observed AEs ([1]; 60 patients, all doses): None of the observed AEs were deemed to be clinically relevant
- patients who experienced DLTs ([1]; of 60 patients, all doses): Three
- asthenia, share G1 ([1]; of affected patients, grade 1): 67%
- bradycardia/sinus bradycardia, share G1 ([1]; of affected patients, grade 1): 93%
- dizziness, share G1 ([1]; of affected patients, grade 1): 83%
- fatigue, share G1 ([1]; of affected patients, grade 1): 38%
- nausea, share G1 ([1]; of affected patients, grade 1): 46%
- visual disturbances, share G1 ([1]; of affected patients, grade 1): 91%
- vomiting, share G1 ([1]; of affected patients, grade 1): 50%
- asthenia, share G2 ([1]; of affected patients, grade 2): 33%
- bradycardia/sinus bradycardia, share G2 ([1]; of affected patients, grade 2): 7%
- fatigue, share G2 ([1]; of affected patients, grade 2): 63%
- nausea, share G2 ([1]; of affected patients, grade 2): 55%
- visual disturbances, share G2 ([1]; of affected patients, grade 2): 6%
- vomiting, share G2 ([1]; of affected patients, grade 2): 33%
- dizziness, share G3 ([1]; of affected patients, grade 3): 17%
- visual disturbances, share G3 ([1]; of affected patients, grade 3): 3%
- vomiting, share G3 ([1]; of affected patients, grade 3): 17%
- CBR (%) clinical benefit rate at 24 weeks ([2]; 25 mg QD oral (n = 12)): 4/12 (33.3) %
- ORR (%) objective response rate ([2]; 25 mg QD oral (n = 12)): 1/9 (11.1) %
- CBR (%) clinical benefit rate at 24 weeks ([2]; 75 mg QD oral (n = 12)): 8/12 (66.7) %
- ORR (%) objective response rate ([2]; 75 mg QD oral (n = 12)): 1/7 (14.3) %
- CBR (%) clinical benefit rate at 24 weeks ([2]; 150 mg QD oral (n = 13)): 4/13 (30.8) %
- ORR (%) objective response rate ([2]; 150 mg QD oral (n = 13)): 2/11 (18.2) %
- CBR (%) clinical benefit rate at 24 weeks ([2]; 300 mg QD oral (n = 13)): 3/11 (27.3) %
- ORR (%) objective response rate ([2]; 300 mg QD oral (n = 13)): 2/10 (20.0) %
- CBR (%) clinical benefit rate at 24 weeks ([2]; 450 mg QD oral (n = 10)): 3/4 (75.0) %
- ORR (%) objective response rate ([2]; 450 mg QD oral (n = 10)): 1/6 (16.7) %
- CBR (%) clinical benefit rate at 24 weeks ([2]; Total, all doses (n = 60)): 22/52 (42.3) %
- ORR (%) objective response rate ([2]; Total, all doses (n = 60)): 7/43 (16.3) %
- Evidence of clinical benefit and target engagement ([2]; women with ER+ ABC, incl. pre-treated with CDK4/6 inhibitors and fulvestrant, and ESR1 mutations): observed at all dose levels
